Test results as given in US20050170437A1, “Methods and compositions relating to modulating amyloid precursor protein cleavage” (The General Hospital Corporation, priority 2003, published 2005).
Entries after “also recorded” stand apart in the source; their conditions may differ. Like-named read-outs stand apart in the source and are kept apart here. Where a SMILES comes first, the peptide text is derived from it. [ ]: non-standard residue; d: D form. The star is where a group is joined. Nle = CCCC[C@H](N)C(=O)O; Cbz = O=C(OCc1ccccc1)*

Key:
[1] = system: APP; experiment: Western blot analysis of APP C-terminal fragments (C99, C83, C470, ~55/~85-kDa CTFs) in AC29 cells stably transfected with APP; type: cell-based, human; set-up: steady state levels of C99 / APP-CTF levels (C99, C83, C470) compared with ALLN results: dose or concentration left out as unconfirmed
Protocol: Wild-type (WT) and cholesterol mutant (AC29 and 25RA) CHO cell lines were grown in Dulbecco's Modified Eagle Medium (DMEM) and Nutrient Mixture F-12 Ham (Sigma-Aldrich, St. Louis, Mo.), respectively. Media were supplemented with 10% (v/v) FBS (Atlanta Biologicals, Norcross, Ga.), 1% (v/v) L-Glutamine-Penicillin-Streptomycin solution (Sigma-Aldrich), and 0.4% (v/v) G418 Sulfate (Calbiochem, La Jolla, Calif.) as selection marker for cells stably transfected with cDNA constructs expressing APP751 or APP(ES/AA), and hygromycin for […]-[…] in a […] TOPO expression vector (Invitrogen, Carlsbad, Calif.). Cells were cultured at 37° C. in a water-saturated air/CO2 atmosphere. The following antibodies against APP were used throughout this study: 22C11 (monoclonal, against N-terminus; Chemicon International, Temecula, Calif.); 369 (monoclonal, against C-terminus; generous gift from Dr. Sam Gandy, Farber Institute for Neuroscience, Thomas Jefferson University, Philadelphia, Pa.); C7 and C8 (against C-terminus; generous gift from Dr. Dennis J. Selkoe, Harvard Medical School, Boston, Mass.); 4G8 (monoclonal, against […]β; Endogen, Woburn, Mass.); 6E10 (monoclonal, against residues 1-17 of Aβ; Senetek, St. Louis, Mo.). Antibodies against calreticulin (ER marker), GM130 (Golgi marker), and EEA-1 (early endosomes) were obtained from StressGen Biotechnologies Corp. (Victoria BC, Canada) and Transduction Laboratories (Lexington, Ky.). Anti-V5 antibody was from Invitrogen (Carlsbad, Calif.). Additional materials used in this study include the γ-secretase inhibitor DAPT (generous gift from Dr. Rudolph E. Tanzi, Massachusetts General Hospital, Charlestown, Mass.), the β-secretase inhibitor Z-VLL-CHO (Calbiochem, La Jolla, Calif.), ALLN (Calbiochem), lactacystin (Sigma-Aldrich), ammonium chloride (Sigma-Aldrich), chloroquine (Sigma-Aldrich), methyl-(3-cyclodextrin (Sigma-Aldrich), and mevastatin (Sigma).

[2] = system: AC29 cells; experiment: Cholesterol determinations (intracellular FC and CE pools); type: cell-based; set-up: cholesterol levels: dose or concentration left out as unconfirmed; conditions: AC29 cells stably transfected with APP
Protocol: For the determinations of intracellular pools of FC and CE, cells were first incubated ad equilibrium (for 3 days) in the presence of [^14C]Acetic acid (57.0 mCi/mmol) (Amersham Life Science, Elk Grove, Ill.), then washed twice in PBS and extracted in chloroform/methanol (2:1; v/v). The chloroform phase was dried, resuspended again in chloroform, and applied with standards to a Silica Gel-G (EM Science, Gibbstown, N.J.) Thin Layer Chromatography (TLC). Plates were developed in hexane/ethyl ether/acetic acid (87:20:1, v/v) and visualized with […]. Spots were scraped and counted in a liquid scintillation counter.

[3] = system: AC29 cells; experiment: Cell viability by release of lactate-dehydrogenase (LDH) into the media; type: cell-based; conditions: mβ-CD for 24 hours
Protocol: To establish whether the generation of the 55- and 85-kDa APP-CTFs was affected by FC in the absence of changes in CEs, we depleted AC29 cells of cholesterol using a combination of methyl β-cyclodextrin (m#-CD), a sterol-binding molecule, and mevastatin, an HMG-CoA reductase inhibitor. In our studies, mβ-CD was used for 24 hours to allow for cellular cholesterol to reach equilibrium. Cell viability was not affected, as assessed by the release of the cytosolic enzyme lactate-dehydrogenase (LDH) into the media. […] However, it is important to note that normalized FC in AC29 cells only recovered 50% of the Aβ secreted by WT CHO cells (FIG. 2B), the other 50% still missing presumably due to the absence of CE synthesis in these cells. Both ˜55- and ˜85-kDa APP-CTFs were undetectable after successful normalization of FC (FIG. 2C).

[4] = molecular target: APP (Homo sapiens, UniProt P05067); experiment: In vitro assays of APP degradation by recombinant HtrA2; type: biochemical
Source text: We determined that HtrA2 could serve as a chaperone binding to APP that under cellular stress could switch from chaperone to a protease that degrades misfolded APP. AC29 cells have elevated free (membrane) cholesterol level that may cause ER stress. In AC29 cells, levels of mature form of HtrA2 were elevated in the ER and Golgi as compared to the parental CHO cells (FIG. 10). Furthermore, HtrA2 localized to the cell surface in AC29 cells but not in the parental CHO cells (FIG. 11). Also we determined that HtrA2 co-purified with APP from mammalian cells (FIG. 10) and also co-immunoprecipitated with APP. In in vitro assays, recombinant HtrA2 degraded APP.

Chain of APP (Homo sapiens, UniProt P05067) (P05067 18-770): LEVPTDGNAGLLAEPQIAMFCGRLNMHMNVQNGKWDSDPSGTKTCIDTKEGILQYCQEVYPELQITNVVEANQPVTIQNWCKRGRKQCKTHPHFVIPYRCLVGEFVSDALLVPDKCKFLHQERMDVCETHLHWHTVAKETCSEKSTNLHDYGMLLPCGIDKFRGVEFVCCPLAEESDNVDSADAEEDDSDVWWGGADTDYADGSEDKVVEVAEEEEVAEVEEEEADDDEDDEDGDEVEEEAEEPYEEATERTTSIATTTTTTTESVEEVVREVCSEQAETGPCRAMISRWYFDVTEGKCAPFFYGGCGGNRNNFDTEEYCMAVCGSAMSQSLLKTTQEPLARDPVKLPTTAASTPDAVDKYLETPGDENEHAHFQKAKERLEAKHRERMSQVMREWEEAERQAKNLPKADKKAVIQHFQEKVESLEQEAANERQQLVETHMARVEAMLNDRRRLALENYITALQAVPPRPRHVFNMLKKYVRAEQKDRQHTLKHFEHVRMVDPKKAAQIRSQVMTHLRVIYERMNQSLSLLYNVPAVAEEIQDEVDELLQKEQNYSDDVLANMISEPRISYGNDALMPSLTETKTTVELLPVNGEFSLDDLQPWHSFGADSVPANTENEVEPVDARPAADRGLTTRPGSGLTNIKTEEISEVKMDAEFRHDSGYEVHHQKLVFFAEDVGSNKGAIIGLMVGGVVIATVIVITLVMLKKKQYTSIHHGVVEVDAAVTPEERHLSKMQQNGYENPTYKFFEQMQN

With `CCN(CC)CCCC(C)Nc1ccnc2cc(Cl)ccc12` (stereo not shown) [chloroquine] the “steady-state levels of C470” value [1] was “no effect; also recorded: did not affect”.

`CC(=O)N[C@@H](CSC(=O)[C@]1([C@@H](O)C(C)C)NC(=O)[C@H](C)[C@@H]1O)C(=O)O` [lactacystin] was tested, and the “APP-CTF levels (C99, C83, C470) compared with ALLN results” value ([1]; lactacystin instead of ALLN, with or without Z-VLL-CHO, 24 hours) was “Very similar results”.

In the case of `CC(C)C[C@@H](C=O)NC(=O)[C@H](CC(C)C)NC(=O)[C@@H](NC(=O)OCc1ccccc1)C(C)C` [Z-VLL-CHO] (Cbz-Val-Leu-Leu-aldehyde), the “increase in steady-state levels of C470” value ([1]; Z-VLL-CHO (0.5 mM) alone, 24 hours) is reported as “not evident”.

In the case of `CCCC[C@@H](C=O)NC(=O)[C@H](CC(C)C)NC(=O)[C@H](CC(C)C)NC(C)=O` [ALLN] (Ac-Leu-Leu-[Nle]-aldehyde), the “steady state levels of C99” value ([1]; alone, 24 hours) is reported as “increased”.

In the case of `CC[C@H](C)C(=O)O[C@H]1CCC=C2C=C[C@H](C)[C@H](CC[C@@H]3C[C@@H](O)CC(=O)O3)[C@H]21` [Mevastatin, mevastatin], the cholesterol levels [2] is reported as “did not induce significant changes”.

With methyl β-cyclodextrin [mβ-CD] the “Cell viability (LDH release into the media)” value [3] was “not affected” and the FC levels ([2]; mβ-CD (1 mM) alone) was “reduced, but did not normalize; also recorded: reduce but did not normalize”.

In the case of `Cl.N` [ammonium chloride], the “steady-state levels of C470” value ([1]; ammonium chloride (NH4Cl, 10 mM)) is reported as “no effect; also recorded: did not affect”.

For `C[C@H](NC(=O)Cc1cc(F)cc(F)c1)C(=O)N[C@H](C(=O)OC(C)(C)C)c1ccccc1` [DAPT], the C83 levels ([1]; 250 nM DAPT, antibody C7) was “increased”.

B1: recombinant HtrA2: serine protease containing a PDZ domain; protein with ζ cleavage activity (protein, UniProt O43464 134-458, looked up)
Serine protease HTRA2, …: AVPSPPPASPRSQYNFIADVVEKTAPAVVYIEILDRHPFLGREVPISNGSGFVVAADGLIVTNAHVVADRRRVRVRLLSGDTYEAVVTAVDPVADIATLRIQTKEPLPTLPLGRSADVRQGEFVVAMGSPFALQNTITSGIVSSAQRPARDLGLPQTNVEYIQTDAAIDFGNSGGPLVNLDGEVIGVNTMKVTAGISFAIPSDRLREFLHRGEKKNSSSGISGSQRRYIGVMMLTLSPSILAELQLREPSFPDVQHGVLIHKVILGSPAHRAGLRPGDVILAIGEQMVQNAEDVYEAVRTQSQLAVQIRRGRETLTLYVTPEVTE
B1 was tested, and the “degradation of APP” value [4] was “degraded APP”.
